Results published in US7202244B2, “Chk-1 inhibitors” (Millennium Pharmaceuticals, Inc., priority 2002, dated 2007).
Values belong to the compound of their own block, whether it stands above or below them.

Key:
[1] = target: T1, GST-Chk1 (recombinant human Chk1) (Homo sapiens, UniProt O14757); assay: Chk1 FlashPlate kinase assay; type: biochemical; conditions: 1 uM ATP
T1 construct: made in house; host or cells: insect cells (Bac-to-Bac baculovirus system)
T1 sequence (O14757 1-476): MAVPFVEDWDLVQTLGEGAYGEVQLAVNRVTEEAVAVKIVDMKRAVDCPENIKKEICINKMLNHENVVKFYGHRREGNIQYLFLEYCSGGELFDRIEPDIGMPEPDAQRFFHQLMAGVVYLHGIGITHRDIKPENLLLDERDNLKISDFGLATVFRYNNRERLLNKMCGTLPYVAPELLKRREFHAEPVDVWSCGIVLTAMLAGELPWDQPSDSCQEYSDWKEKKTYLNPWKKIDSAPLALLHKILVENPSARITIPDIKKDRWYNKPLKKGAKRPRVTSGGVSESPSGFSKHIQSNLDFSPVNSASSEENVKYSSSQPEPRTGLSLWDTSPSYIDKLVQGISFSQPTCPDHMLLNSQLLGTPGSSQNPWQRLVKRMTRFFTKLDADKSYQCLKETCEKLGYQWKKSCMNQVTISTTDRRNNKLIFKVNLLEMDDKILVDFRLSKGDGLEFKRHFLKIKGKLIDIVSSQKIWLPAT
Experimental: Recombinant human Chk1 was expressed as a fusion protein with glutathione S-transferase at the amino-terminus (GST-Chk1) using standard baculovirus vectors and (Bac-to-Bac®) insect cell expression system purchased from GIBCO™ Invitrogen. Recombinant protein expressed in insect cells was purified using glutathione sepharose (Amersham Biotech) using standard procedures described by the manufacturer.
Chk1 FlashPlate® Kinase Assay:
Reactions were incubated for 30 minutes at room temperature, terminated with 50 ul of 50 mM EDTA and 90 ul were transferred to streptavidin-coated FlashPlates® (NEN) and incubated for 1 hour at room temperature. Plates were washed with phosphate buffered salaine containing 0.01% Tween-20 and 10 mM sodium pyrophosphate. Plates were dried, sealed with Topseal™ (NEN) and amount of ^33P incorporated into the peptide substate measure using a Packard Topcount® NXT™ scintillation counter with standard settings.
Compounds of the present invention were tested in the Chk1 FlashPlate® kinase assay described above.

[2] = system: HT29, HCT116 or other cells; assay: WST assay: enhancement of cell killing by DNA damaging agents; type: cell-based; conditions: shift of 1 = no shift; for Shift 156 nM: Chk1 inhibitor fixed at 156 nM with DNA damaging agent titration; for Shift 313 nM: Chk1 inhibitor fixed at 313 nM with DNA damaging agent titration; for Shift 625 nM: Chk1 inhibitor fixed at 625 nM with DNA damaging agent titration; for Shift 1.25 μM: Chk1 inhibitor fixed at 1.25 μM with DNA damaging agent titration; for Shift 2.5 μM: Chk1 inhibitor fixed at 2.5 μM with DNA damaging agent titration; for Shift 78 nM: Chk1 inhibitor fixed at 78 nM with DNA damaging agent titration
Experimental: HT29, HCT116 (5000 cells/well) or other cells were seeded (75 ul) to 96 well clear bottom plates at densities which provide linear growth curves for 72 hours. Cells were cultured under sterile conditions in appropriate media and for HT29 & HCT116 this media was McCoy's 5A containing 10% Fetal Bovine Serum (FBS). Following the initial seeding of cells they are incubated at 37° C., 5% CO2 from 17 to 24 hours at which time the appropriate DNA damaging agents (camptothecins, 5-fluorouracil and etoposid) are added at increasing concentrations to a point which is capable of causing at least 80% cell killing with in 48 hours. Final volume of all DNA damaging agent & compound additions was 25 ul and assays contained <1% DMSO final. At the same time as DNA Damaging agent addition, Chk1 inhibitor was added at fixed concentrations to each DNA damaging agent titration to observe enhancement of cell killing. In addition, toxicity of each Chk1 inhibitor alone was observed. By doing this over a range of Chk1 inhibitor concentrations we were able to identify compounds which maximally enhance (2–30 fold) cell killing by each DNA damaging agent and generated ≦80% cell killing by the compound alone. Cell viability/cell killing under the conditions described above was determined by addition WST reagent (Roche) according to the manufacturer at 47 hours following DNA damage & Chk1 inhibitor addition and following a 3.5 hour or 2.5 hour incubation at 37 C, 5% CO2, OD450 was measured.

CHK-1 = target: T2, CHK-1 (Homo sapiens, UniProt O14757); assay: IC50 for the test compound versus CHK-1 (Table 2, assay format not stated); type: biochemical
T2 sequence (O14757 1-476): T1 sequence (O14757 1-476)

IC50 [1]: < 1000 nM
Structure (SMILES): COc1cc(Cl)c(C)cc1NC(=O)Nc1cnccn1 [Compound 46]

IC50 [1]: < 100 nM
Structure (SMILES): Cc1cnc(NC(=O)Nc2cc(Cl)ccc2OCC(C)(C)CN)cn1 [Compound 109]

IC50 [1]: < 100 nM
Structure (SMILES): NCCCOc1ccc(Cl)cc1NC(=O)Nc1ccc(C(N)=O)cn1 [Compound 110]

IC50 [1]: < 100 nM
Structure (SMILES): N#Cc1ccc(NC(=O)Nc2cc(Cl)ccc2OCCCN)nc1 [Compound 111]

IC50 [1]: < 100 nM
Structure (SMILES): Cc1cnc(NC(=O)Nc2cc(Cl)ccc2OCCCNC2CCC2)cn1 [Compound 112]

IC50 [1]: < 100 nM | IC50 (CHK-1): 3.5 nM
Structure (SMILES): CN(C)CCCOc1ccc(Cl)cc1NC(=O)Nc1cnccn1 [Example 1, 1-[5-Chloro-2-(3-dimethylamino-propoxy)-phenyl]-3-pyrazin-2-yl-urea]
Shift 156 nM [2]: 1 | Shift 313 nM [2]: 1.2 | Shift 625 nM [2]: 1.6 | Shift 1.25 μM [2]: 2.2 | Shift 2.5 μM [2]: 3.4

IC50 [1]: < 100 nM | IC50 (CHK-1): 8 nM
Structure (SMILES): CN(C)CCOc1ccc(Cl)cc1NC(=O)Nc1cnccn1 [Example 2, 1-[5-Chloro-2-(2-dimethylamino-ethoxy)-phenyl]-3-pyrazin-2-yl-urea]
Shift 156 nM [2]: 1 | Shift 313 nM [2]: 1.1 | Shift 625 nM [2]: 1.5 | Shift 1.25 μM [2]: 1.9 | Shift 2.5 μM [2]: 2.6

IC50 [1]: < 100 nM
Structure (SMILES): Cc1cnc(NC(=O)Nc2cc(Cl)ccc2OCCN(C)C)cn1 [Example 3, 1-[5-Chloro-2-(2-dimethylamino-ethoxy)-phenyl]-3-(5-methyl-pyrazin-2-yl)-urea]

IC50 [1]: < 1000 nM
Structure (SMILES): O=C(Nc1cnccn1)Nc1cc(Cl)ccc1OCCN1CCOCC1 [Example 5, 1-[5-Chloro-2-(2-morpholin-4-yl-ethoxy)-phenyl]-3-pyrazin-2-yl-urea]

IC50 [1]: < 1000 nM
Structure (SMILES): COc1ccc(Cl)cc1NC(=O)Nc1cnccn1 [Example 6, 1-(5-Chloro-2-methoxy-phenyl)-3-pyrazin-2-yl-urea]

Structure (SMILES): CC(C)CCOc1ccc(Cl)cc1NC(=O)Nc1cnccn1 [Example 7, 1-[5-Chloro-2-(3-methyl-butoxy)-phenyl]-3-pyrazin-2-yl-urea]
IC50 [1]: < 1000 nM

IC50 [1]: < 1000 nM
Structure (SMILES): COc1ccc(C)cc1NC(=O)Nc1cnccn1 [Example 8, 1-(2-Methoxy-5-methyl-phenyl)-3-pyrazin-2-yl-urea]

IC50 [1]: < 1000 nM
Structure (SMILES): O=C(Nc1cnccn1)Nc1ccccc1OC(F)(F)F [Example 9, 1-Pyrazin-2-yl-3-(2-trifluoromethoxy-phenyl)-urea]

IC50 [1]: < 1000 nM
Structure (SMILES): Cc1ccc(Cl)cc1NC(=O)Nc1cnccn1 [Example 10, 1-(5-Chloro-2-methyl-phenyl)-3-pyrazin-2-yl-urea]

IC50 [1]: < 1000 nM
Structure (SMILES): COc1ccc(NC(C)=O)cc1NC(=O)Nc1cnccn1 [Example 11, N-[4-Methoxy-3-(3-pyrazin-2-yl-ureido)-phenyl]-acetamide]

IC50 [1]: < 1000 nM
Structure (SMILES): COC(=O)c1ccc(OC)c(NC(=O)Nc2cnccn2)c1 [Example 12, 4-Methoxy-3-(3-pyrazin-2-yl-ureido)-benzoic acid methyl ester]

IC50 [1]: < 1000 nM
Structure (SMILES): COc1ccc(C(F)(F)F)cc1NC(=O)Nc1cnccn1 [Example 13, 1-(2-Methoxy-5-trifluoromethyl-phenyl)-3-pyrazin-2-yl-urea]

IC50 [1]: < 1000 nM
Structure (SMILES): COc1ccc(NC(=O)Nc2cnccn2)c(OC)c1 [Example 14, 1-(2,4-Dimethoxy-phenyl)-3-pyrazin-2-yl-urea]

IC50 [1]: < 1000 nM
Structure (SMILES): COc1ccc(Cl)c(NC(=O)Nc2cnccn2)c1 [Example 15, 1-(2-Chloro-5-methoxy-phenyl)-3-pyrazin-2-yl-urea]

IC50 [1]: < 20000 nM
Structure (SMILES): COc1ccc(Cl)cc1NC(=O)Nc1ccncn1 [Example 16, 1-(5-Chloro-2-methoxy-phenyl)-3-pyrimidin-4-yl-urea]

IC50 [1]: < 20000 nM
Structure (SMILES): COc1ccccc1NC(=O)Nc1cnccn1 [Example 17, 1-(2-Methoxy-phenyl)-3-pyrazin-2-yl-urea]

IC50 [1]: < 20000 nM
Structure (SMILES): COc1ccc(NC(=O)Nc2cnccn2)cc1Cl [Example 18, 1-(3-Chloro-4-methoxy-phenyl)-3-pyrazin-2-yl-urea]

IC50 [1]: < 20000 nM
Structure (SMILES): O=C(Nc1cccc(Cl)c1)Nc1cnccn1 [Example 19, 1-(3-Chloro-phenyl)-3-pyrazin-2-yl-urea]

IC50 [1]: < 20000 nM
Structure (SMILES): O=C(Nc1ccc(N2CCCCC2)cc1)Nc1cnccn1 [Example 21, 1-(4-Piperidin-1-yl-phenyl)-3-pyrazin-2-yl-urea]

IC50 [1]: < 20000 nM
Structure (SMILES): O=C(Nc1cnccn1)Nc1cnccn1 [Example 23, 1,3-Di-pyrazin-2-yl-urea]

IC50 [1]: < 20000 nM
Structure (SMILES): O=C(Nc1ccc2c(c1)OCO2)Nc1cnccn1 [Example 24, 1-Benzo[1,3]dioxol-5-yl-3-pyrazin-2-yl-urea]

Structure (SMILES): O=C(Nc1cnccn1)Nc1cc(Cl)ccc1OCCN1CC1 [Example 26, 1-[2-(2-Aziridin-1-yl-ethoxy)-5-chloro-phenyl]-3-pyrazin-2-yl-urea]
IC50 [1]: < 1000 nM

IC50 [1]: < 1000 nM
Structure (SMILES): O=C(Nc1cnccn1)Nc1cc(Cl)ccc1OCc1cccnc1 [Example 27, 1-[5-Chloro-2-(pyridin-3-ylmethoxy)-phenyl]-3-pyrazin-2-yl-urea]

IC50 (CHK-1): 4 nM
Structure (SMILES): Cc1cnc(NC(=O)Nc2cc(Cl)ccc2OCCCN)cn1 [Example 28]
Shift 78 nM [2]: 2.7 | Shift 156 nM [2]: 3.4 | Shift 313 nM [2]: 5.3 | Shift 625 nM [2]: 6.8 | Shift 1.25 μM [2]: toxic | Shift 2.5 μM [2]: toxic

IC50 (CHK-1): 2.5 nM
Structure (SMILES): NCCCOc1ccc(Cl)cc1NC(=O)Nc1cnccn1 [Example 29, 1-[2-(3-Amino-propoxy)-5-chloro-phenyl]-3-pyrazin-2-yl-urea]
Shift 78 nM [2]: 2.5 | Shift 156 nM [2]: 3.1 | Shift 313 nM [2]: 4.5 | Shift 625 nM [2]: 5.0 | Shift 1.25 μM [2]: toxic | Shift 2.5 μM [2]: toxic

IC50 (CHK-1): 19 nM
Structure (SMILES): CN(C)CCCOc1ccc(Cl)cc1NC(=O)Nc1cnc2ccccc2n1 [Example 30, 1-[5-Chloro-2-(3-dimethylamino-propoxy)-phenyl]-3-quinoxalin-2-yl-urea]
Shift 1.25 μM [2]: 1 | Shift 2.5 μM [2]: 1.4

IC50 (CHK-1): 5 nM
Structure (SMILES): NCCCOc1ccc(Cl)cc1NC(=O)Nc1cnc2ccccc2n1 [Example 31, 1-[2-(3-Amino-propoxy)-5-chloro-phenyl]-3-quinoxalin-2-yl-urea]
Shift 156 nM [2]: 1.3 | Shift 313 nM [2]: 1.8 | Shift 625 nM [2]: 2.8 | Shift 1.25 μM [2]: 4.4 | Shift 2.5 μM [2]: 6.2

IC50 (CHK-1): 16 nM
Structure (SMILES): NCCOc1ccc(Cl)cc1NC(=O)Nc1cnccn1 [Example 32, 1-[2-(2-Amino-ethoxy)-5-chloro-phenyl]-3-pyrazin-2-yl-urea]
Shift 1.25 μM [2]: 1.2 | Shift 2.5 μM [2]: 1.4

Structure (SMILES): Cc1cnc(NC(=O)Nc2cc(Cl)ccc2OCCCCN)cn1 [Example 33, 1-[2-(4-Amino-butoxy)-5-chloro-phenyl]-3-(5-methyl-pyrazin-2-yl)-urea]
Shift 78 nM [2]: 1.8 | Shift 156 nM [2]: 2.4 | Shift 313 nM [2]: 2.7 | Shift 625 nM [2]: 3.1 | IC50 (CHK-1): 3 nM

IC50 (CHK-1): 20 nM
Structure (SMILES): COc1cncc(NC(=O)Nc2cc(Cl)ccc2OCCCN)n1 [Example 34]
Shift 1.25 μM [2]: 2.4 | Shift 2.5 μM [2]: 3.031

IC50 (CHK-1): 16 nM
Structure (SMILES): Cc1ccc(OCCCN(C)C)c(NC(=O)Nc2cnccn2)c1 [Example 35, 1-[5-Methyl-2-(3-dimethylamino-propoxy)-phenyl]-3-pyrazin-2-yl-urea]
Shift 1.25 μM [2]: 2.1 | Shift 2.5 μM [2]: 2.9
